Test results reported in publication PMC12667509, “Inhibition of Macrophage ARID3A Alleviates Myocardial Ischemia‐Reperfusion Injury After Heart Transplantation by Reducing THBS1/CD47 Signaling‐Mediated Neutrophil Extracellular Traps Formation” (Advanced Science, 2025).

Target: T1, ARID3A (Homo sapiens, UniProt Q99856)
T1 construct: recombinant human protein immobilised on CM5 chip
T1 sequence (Q99856 1-593): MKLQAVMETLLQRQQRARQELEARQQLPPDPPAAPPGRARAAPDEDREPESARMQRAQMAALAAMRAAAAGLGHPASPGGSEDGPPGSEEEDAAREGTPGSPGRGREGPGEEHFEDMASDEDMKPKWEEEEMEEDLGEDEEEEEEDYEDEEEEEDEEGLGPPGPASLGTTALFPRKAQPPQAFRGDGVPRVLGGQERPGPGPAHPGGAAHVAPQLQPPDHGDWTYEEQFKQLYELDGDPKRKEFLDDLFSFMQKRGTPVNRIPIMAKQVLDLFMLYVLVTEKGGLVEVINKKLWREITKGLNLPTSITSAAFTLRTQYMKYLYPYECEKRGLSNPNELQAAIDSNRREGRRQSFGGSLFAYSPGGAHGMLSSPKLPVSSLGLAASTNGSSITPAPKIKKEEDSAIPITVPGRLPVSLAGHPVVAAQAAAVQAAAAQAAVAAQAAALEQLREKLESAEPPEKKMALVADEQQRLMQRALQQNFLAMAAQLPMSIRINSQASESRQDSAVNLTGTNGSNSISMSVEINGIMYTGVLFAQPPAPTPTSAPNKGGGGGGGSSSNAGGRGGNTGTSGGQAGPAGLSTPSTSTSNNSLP
Experiment: SPR (Biacore T200, CM5 chip, kinetic analysis)
Format: binding

Kd: 7.64 µM
Structure (SMILES): C=C(CC(=O)OCCCCCCCC)C(=O)O [4‐OI, 4‐octyl itaconate]
